Where “and” joins values, the source holds several entries; their conditions need not be identical. Equal values may be shown once.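 Assay format: 96-well plates, 48-hour exposure. Abbreviation: GI50, concentration required for 50% inhibition of growth. TGI marks complete inhibition of growth.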 Where a SMILES comes first, the peptide text is derived from it. [ ]: non-standard residue; d: D form. The star is where a group is joined. ξ: configuration not given here. NMeY = CN[C@@H](Cc1ccc(O)cc1)C(=O)O; Cbz = O=C(OCc1ccccc1)*; ξA = CC(N)C(=O)O
Experiments:
Assay in all cases: NCI anticancer screen, dose series, 48 h
[1] = tested on: M19-MEL melanoma
[2] = tested on: SF-268 CNS
[3] = tested on: EKVX NSCLC
[4] = tested on: SK-MEL-2 melanoma
[5] = tested on: DLD-1 colon
[6] = tested on: XF 498 CNS
[7] = tested on: OVCAR-8 ovarian
[8] = tested on: SK-MEL-28 melanoma
[9] = tested on: SNB-78 CNS
[10] = tested on: SF-295 CNS
[11] = tested on: LOX IMVI melanoma
[12] = tested on: CCRF-CEM leukemia

| SMILES | TGI [1] | TGI [2] | TGI [3] | TGI [4] | TGI [5] | TGI [6] | TGI [7] | TGI [8] | TGI [9] | TGI [10] | TGI [11] | TGI [12] | GI50 [3] | GI50 [4] | GI50 [7] | GI50 [8] | GI50 [11] | GI50 [10] |
| --- | --- | --- | --- | --- | --- | --- | --- | --- | --- | --- | --- | --- | --- | --- | --- | --- | --- | --- |
| CC(C)(CN1CCCCC1)C(=O)CC(SCCS(=O)(=O)O)c1ccc(Br)cc1 (stereo not drawn) | 5.05 µM | 5.48 µM | 6.51 µM | 4.37 µM | 5.73 µM | 2.07 µM | 5.96 µM | 8.7 µM | 77.7 µM | 16.7 µM | – | – | – | – | – | – | – | – |
| Cc1nc2c(n1Cc1ccc(Cl)cc1)C(=O)c1ccccc1C2=O | > 75 µM | > 75 µM | > 75 µM | > 75 µM | > 75 µM | > 75 µM | > 75 µM | > 75 µM | > 75 µM | > 75 µM | > 75 µM | > 75 µM | – | – | – | – | – | – |
| Cc1ccc(S(=O)(=O)C(C#N)c2nc3ccccc3nc2-n2cccn2)cc1 (stereo not drawn) | > 100 µM | > 100 µM | > 100 µM | > 100 µM | > 100 µM | > 100 µM | > 100 µM | > 100 µM | > 100 µM | > 100 µM | – | > 100 µM | – | – | – | – | – | – |
| O=C(c1cccs1)N(C(=S)N1CCN(c2ccccc2)CC1)c1ccccc1 | > 100 µM | > 100 µM | – | > 100 µM | > 100 µM | – | > 100 µM | > 100 µM | > 100 µM | > 100 µM | > 100 µM | > 100 µM | – | – | – | – | – | – |
| NC1=NS(=O)(=O)N=C(N)C1=Cc1ccc([N+](=O)[O-])o1 | 30 µM | 31.3 µM | 32.5 µM | 30.9 µM | 33.7 µM | 32.7 µM | 33.3 µM | 29.5 µM | 47.9 µM | 61.8 µM | 33.2 µM | 92.8 µM | – | – | – | – | – | – |
| O=S1(=O)NNC(=NCc2ccc(F)cc2)c2ccccc21 | > 100 µM | > 100 µM | > 100 µM | > 100 µM | > 100 µM | > 100 µM | > 100 µM | > 100 µM | > 100 µM | > 100 µM | > 100 µM | > 72.7 µM | – | – | – | – | – | – |
| Oc1ccc2ccccc2c1-c1nnc(CCCCCCCCc2nnc(-c3c(O)ccc4ccccc34)o2)o1 | – | > 100 µM | 25 µM and > 100 µM | 25 µM and > 100 µM | – | – | – | > 68.5 µM | – | 25 µM and > 93.6 µM | 25 µM and > 100 µM | > 60.3 µM | 6.7 µM | 4.88 µM | 0.317 µM | > 25 µM | 0.437 µM | 2.83 µM |
| Cc1[nH]c(=O)nc(N/N=C/c2ccc(Cl)c(Cl)c2)c1C(=O)Nc1ccc(Cl)c(Cl)c1 | – | 40.7 µM | > 100 µM | 49.9 µM | – | – | 14.8 µM | 23.4 µM | – | > 30.7 µM | > 57 µM | > 23 µM | – | – | – | – | – | – |
| OC(CC(c1ccccc1)c1ccc(Cl)cc1)c1ccc(Cl)cc1 (stereo not drawn) | – | > 100 µM | 74.7 µM | 49.8 µM | – | – | > 100 µM | > 100 µM | – | 92 µM | 77.2 µM | > 100 µM | – | – | – | – | – | – |
| Cc1cc(S(=O)(=O)Nc2n[nH]c(Nc3ccccc3)n2)c(S)cc1Cl | – | > 10 µM | > 10 µM | > 10 µM | – | – | > 10 µM | > 10 µM | – | > 10 µM | > 10 µM | > 10 µM | – | – | – | – | – | – |
| CCOC(=O)CCC1(C(=O)OC)CCCC1=O (stereo not drawn) | > 100 µM | > 100 µM | > 100 µM | > 100 µM | > 100 µM | > 100 µM | > 100 µM | > 100 µM | > 100 µM | > 100 µM | > 100 µM | – | – | – | – | – | – | – |
| COc1ccc(N2C(=O)C3c4[nH]c5ccc(C)cc5c4C4CCC(C(C)C)CC4C3C2=O)cc1 (stereo not drawn) | – | > 100 µM | > 100 µM | > 100 µM | – | – | > 100 µM | > 100 µM | – | > 100 µM | > 100 µM | > 100 µM | – | – | – | – | – | – |
| CC1=NN(C(=O)CC(=O)Nc2cccc(Cl)c2)C(=O)C1N=Nc1ccc(S(N)(=O)=O)cc1 (stereo not drawn) | > 100 µM | > 100 µM | > 100 µM | > 100 µM | > 100 µM | > 100 µM | > 100 µM | > 100 µM | > 100 µM | > 100 µM | > 100 µM | – | – | – | – | – | – | – |
| O=c1[nH]c(=O)n(C2CC(O)C(CO)O2)cc1C#Cc1ccc(C(F)(F)F)cc1 (stereo not drawn) | – | > 100 µM | > 100 µM | > 100 µM | > 100 µM | > 100 µM | > 100 µM | > 100 µM | – | > 100 µM | > 100 µM | > 100 µM | – | – | – | – | – | – |
| CC(=O)N[C@@H](Cc1ccc(O)cn1)C(=O)NCc1ccc2c(c1)OCO2 | – | > 100 µM | > 100 µM | > 100 µM | – | – | > 100 µM | > 100 µM | – | > 100 µM | > 100 µM | > 100 µM | – | – | – | – | – | – |
| C/C(=N\N(C)C)C(CN(C)C)C(c1ccccc1)c1c(O)c2ccccc2oc1=O (stereo not drawn) | – | > 100 µM | > 100 µM | > 100 µM | > 100 µM | > 100 µM | > 100 µM | > 100 µM | > 100 µM | > 100 µM | > 100 µM | > 100 µM | – | – | – | – | – | – |
| c1ccc2c3c(ccc2c1)CSCc1ccc2ccccc2c1-3 | – | > 100 µM | > 100 µM | > 100 µM | – | – | > 100 µM | > 100 µM | – | > 100 µM | > 100 µM | > 100 µM | – | – | – | – | – | – |
| COc1ccccc1C(=O)c1c(N2CCCCC2)c(=O)c1=O | – | > 100 µM | > 100 µM | > 100 µM | – | – | > 100 µM | > 100 µM | – | > 100 µM | > 100 µM | > 100 µM | – | – | – | – | – | – |
| COc1ccc(C[C@@H](C(=O)NCC(N)=O)N(C)C(=O)[C@@H]2CCCN2C(=O)[C@H](CC(C)C)NC(=O)C(C)NC(=O)OCc2ccccc2)cc1 (stereo partly drawn) (Cbz-[ξA]LP[NMeY](Me)G-NH2) | – | > 100 µM | > 100 µM | > 100 µM | – | – | > 100 µM | > 100 µM | – | > 100 µM | > 100 µM | > 100 µM | – | – | – | – | – | – |
| O=C1CCC2(CCC(=O)NC2=O)C(=O)N1 | > 100 µM | > 100 µM | > 100 µM | – | – | > 100 µM | > 100 µM | > 100 µM | – | > 100 µM | > 100 µM | > 100 µM | – | – | – | – | – | – |
| c1ccc(C2=NN3CN(N2)c2ccccc2OCCCOc2ccccc23)cc1 | > 100 µM | > 100 µM | > 100 µM | > 100 µM | – | > 100 µM | > 100 µM | > 100 µM | > 100 µM | > 100 µM | > 100 µM | > 100 µM | – | – | – | – | – | – |
| CCOC(=O)c1c2c(n(C)c1-c1ccccc1)C(=O)C(C)=CC2=O | – | 23.1 µM | 20.5 µM | 31.1 µM | – | – | 15.4 µM | 27.8 µM | – | 36.8 µM | 13.2 µM | 7.98 µM | – | – | – | – | – | – |
| Brc1ccc(N2C[N+](c3ccc(Br)cc3)=NC(c3ccccc3)=N2)cc1 | 29.7 µM and > 100 µM | 35.8 µM and > 100 µM | 31.8 µM and > 100 µM | 32.6 µM and > 100 µM | 25.2 µM and > 100 µM | 35.5 µM and > 100 µM | 41.9 µM and > 100 µM | 39.2 µM and > 100 µM | 70.6 µM and > 100 µM | 29.1 µM and > 100 µM | – | – | – | – | – | – | – | – |
| O=C(c1ccccc1F)c1c(NCc2ccccc2)c(=O)c1=O | – | > 100 µM | > 100 µM | > 100 µM | – | – | > 100 µM | > 100 µM | – | > 100 µM | > 100 µM | > 100 µM | – | – | – | – | – | – |
| O=C(Nc1cccc2nsnc12)c1cc2c(cc1Cl)Sc1nccn1S2(=O)=O | – | 20.4 µM | 11.1 µM | 26.4 µM | – | – | 8.94 µM | 8.86 µM | – | 28.2 µM | > 63.8 µM | > 36.6 µM | – | – | – | – | – | – |
| Cc1ccc(-c2cc(-c3ccc(Cl)cc3)nc(/N=C3\C(=O)N(CN4CCCCC4)c4ccc(Cl)cc43)n2)cc1 | – | 40.3 µM | > 100 µM | 39.3 µM | – | – | 38.8 µM | > 100 µM | – | > 100 µM | 53 µM | > 100 µM | – | – | – | – | – | – |
| CC1=NN(c2nc(N)nc(/C(C#N)=C/c3ccncc3)n2)C(C)(C)C1 | – | > 100 µM | > 100 µM | > 100 µM | – | – | > 100 µM | > 100 µM | – | > 100 µM | > 100 µM | > 100 µM | – | – | – | – | – | – |
| Cc1ccc2c(c1)c(=O)c1c(NCCN(C)C)ccc3nnn2c31 | 20.8 µM | 20.2 µM | 23.6 µM | 21.1 µM | 20 µM | – | 17.7 µM | 18 µM | 24.2 µM | 15.4 µM | 4.6 µM | 17.9 µM | – | – | – | – | – | – |
